According to patent US20250319046A1, “PHENYLALANINE-BASED LAT1 INHIBITORS AND USES THEREOF” (MAXYMUNE THERAPEUTICS, INC., priority 2024, published 2025):
Counter-ions that a name gives are not always drawn. Like-named read-outs stand apart in the source and are kept apart here.

Assays:
LAT1 = LAT1 (Homo sapiens (Human), UniProt Q01650); test: LAT1 uptake inhibition assay: [3H]-gabapentin competition uptake in LN229 cells; type: cell-based; details: [3H]-gabapentin uptake
Experimental: LAT1 Uptake Inhibition Assay
The ability of compounds to interact with LAT1 was measured using a radiolabeled competition uptake assay with [^3H]-Gabapentin ([^3H]-GP) (Perkin Elmer) in 96-well plates with LN229 cells (ATCC®). Ten (10)×10^3 (10,000) cells/well were plated in white, clear bottom plates and were allowed to grow for three (3) days. On the fourth day, the cells were washed and then incubated with 50,000 counts per minute (cpm) of [^3H]-GP in phosphate buffered saline (PBS) (VWR International) with increasing concentrations of test compounds in at least triplicate for 15 min. At end of the assay time, the incubation solution was removed, and plates were washed three times (3×) with 100 μL of ice-cold PBS buffer. One-hundred fifty (150) […] of scintillation fluid (VWR International) was added to each well, and the radioactivity retained within the cells was measured on a 96-well scintillation counter. Background uptake ([^3H]-GP uptake in the presence of 10 mM non-radiolabeled gabapentin (GP)) (MedKoo) was subtracted and data were normalized to the DMSO control ([^3H]-GP uptake in the absence of any competitor). Data were fitted to the Michaelis-Menten equation using GraphPad Prism (Version 8.2.0).

LN229 cells = test: Amino acid starvation assay: antiproliferation assay with LN229 cells (CellTiter-Glo); type: cell-based; details: F12K medium, six days
Experimental: Amino Acid Starvation Assay
The ability of compounds to inhibit amino acid uptake interact with LAT1 was measured using an antiproliferation assay with LN229 cells (ATCC®). LN229 cells were cultured in DMEM medium (VWR International). Two (2)×10^3 (2,000) cells/well were plated in clear bottom 96-well plates (CellBIND®, Corning 3340) and were allowed to attach overnight. The next day, cells were washed once with PBS buffer (VWR International). F12K medium ([…]) (VWR International) with increasing concentrations of test compounds in at least triplicate was added. Cells were incubated for six (6) days at 37° C. and 5% CO2. At end of the assay, 140 μL of supernatant medium were removed from each well and 60 μL of CellTiter-Glo® (Promega) were added. Cell lysis was induced by placing the plates for three (3) minutes on an orbital shaker. Plates were incubated for 10 min at 25° C. to stabilize the luminesce signal. Luminescence was recorded using an EnSpire® Multimode Plate Reader (Perkin Elmer). Background (luminescence from wells incubated in the presence of 100 µM of commercial LAT1 inhibitor JPH203 (MedKoo) was subtracted, and data were normalized to the DMSO control (proliferation in the absence of any competitor). Data were fitted to the Michaelis-Menten equation using GraphPad Prism (Version 8.2.0).

[1] = 15 min incubation in PBS, read-out: IC50, the concentration of test compound at which the [3H]-GP uptake was inhibited by 50%
[2] = Table 1, read-out: LAT1 inhibition IC50 (nM ± SE)
[3] = Homo sapiens, LN-229, 144 h, Table 1, read-out: Anti-proliferation LC50 (μM ± SE)
[4] = Homo sapiens, LN-229, 144 h, read-out: LC50, the concentration of test compound at which the proliferation was inhibited by 50%

LAT1, sequence (Q01650 whole entry): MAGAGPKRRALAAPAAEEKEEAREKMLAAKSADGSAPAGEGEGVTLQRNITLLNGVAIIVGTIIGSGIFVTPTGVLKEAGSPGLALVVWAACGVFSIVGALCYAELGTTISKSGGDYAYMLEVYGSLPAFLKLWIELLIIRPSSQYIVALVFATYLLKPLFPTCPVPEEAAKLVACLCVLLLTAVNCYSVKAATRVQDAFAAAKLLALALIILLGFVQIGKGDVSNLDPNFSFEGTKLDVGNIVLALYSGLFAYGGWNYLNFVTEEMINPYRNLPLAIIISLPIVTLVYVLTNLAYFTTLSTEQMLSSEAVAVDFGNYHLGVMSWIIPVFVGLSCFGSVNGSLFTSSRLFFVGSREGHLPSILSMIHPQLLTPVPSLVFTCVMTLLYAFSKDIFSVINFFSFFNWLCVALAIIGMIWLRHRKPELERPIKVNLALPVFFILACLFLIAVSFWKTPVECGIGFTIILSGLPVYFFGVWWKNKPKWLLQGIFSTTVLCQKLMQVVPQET
LAT1, sequence (P08195 whole entry partner): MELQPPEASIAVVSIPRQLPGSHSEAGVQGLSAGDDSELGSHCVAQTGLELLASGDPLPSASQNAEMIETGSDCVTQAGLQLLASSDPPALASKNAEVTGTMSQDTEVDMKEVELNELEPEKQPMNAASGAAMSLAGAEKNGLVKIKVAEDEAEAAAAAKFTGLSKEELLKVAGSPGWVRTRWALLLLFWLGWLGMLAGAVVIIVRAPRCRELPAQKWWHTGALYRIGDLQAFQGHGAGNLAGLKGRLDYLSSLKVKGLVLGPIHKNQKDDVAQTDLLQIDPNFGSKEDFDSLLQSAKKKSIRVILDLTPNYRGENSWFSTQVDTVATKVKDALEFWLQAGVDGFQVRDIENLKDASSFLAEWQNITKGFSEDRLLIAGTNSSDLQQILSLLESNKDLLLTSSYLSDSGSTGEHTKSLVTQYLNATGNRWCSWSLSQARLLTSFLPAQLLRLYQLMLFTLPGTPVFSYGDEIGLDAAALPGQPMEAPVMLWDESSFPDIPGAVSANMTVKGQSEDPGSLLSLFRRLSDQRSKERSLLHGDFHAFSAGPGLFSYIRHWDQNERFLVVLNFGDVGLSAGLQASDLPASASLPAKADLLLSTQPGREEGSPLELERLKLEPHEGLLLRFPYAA

IC50 (LAT1; [1])	IC50 (LAT1; [2])	IC50 (LAT1; read-out: IC50 in the LAT1 uptake inhibition assay)	Compound	CC50 (LN229 cells; [3])	CC50 (LN229 cells; [4])	CC50 (LN229 cells; Table 1, read-out: Anti-proliferation LC50 (μM ± SE))
≤ 20 nM	10 ± 1 nM	–	CC(C)c1ccc(S(=O)(=O)Nc2ccc(Cl)cc2)cc1C[C@H](N)C(=O)O [Compound 86, (S)-2-Amino-3-(5-(N-(4-chlorophenyl)sulfamoyl)-2-isopropylphenyl)propanoic Acid]	4 ± 0.7 µM	< 30 µM	–
20 to 100 nM	100 ± 20 nM	–	Cc1ccc(NS(=O)(=O)c2ccc(C(C)(C)C)cc2)cc1C[C@H](N)C(=O)O [Compound 87, (S)-2-Amino-3-(5-((4-(tert-butyl)phenyl)sulfonamido)-2-methylphenyl)propanoic Acid]	100 ± 20 µM	≥ 100 µM	–
≤ 20 nM	12 ± 4 nM	–	Cc1ccc(S(=O)(=O)Nc2ccc(Br)cc2)cc1C[C@H](N)C(=O)O [Compound 77, (S)-2-Amino-3-(5-(N-(4-bromophenyl)sulfamoyl)-2-methylphenyl)propanoic Acid]	13 ± 1 µM	< 30 µM	–
–	–	19 ± 6 nM	Nc1cc(COc2c(Cl)cc(C[C@H](N)C(=O)O)cc2Cl)c2oc(-c3ccccc3)nc2c1 [JPH203, (S)-2-Amino-3-(4-((5-amino-2-phenylbenzo[d]oxazol-7-yl)methoxy)-3,5-dichlorophenyl)propanoic Acid, reference compound]	–	20 ± 10 µM	–

The next lines start with the molecule.

Compound	IC50 (LAT1; [1])	IC50 (LAT1; [2])	IC50 (LAT1; read-out: IC50 in the LAT1 uptake inhibition assay)	CC50 (LN229 cells; [3])	CC50 (LN229 cells; [4])	CC50 (LN229 cells; Table 1, read-out: Anti-proliferation LC50 (μM ± SE))
Cc1ccc(S(=O)(=O)Nc2cccc3ccccc23)cc1C[C@H](N)C(=O)O [Compound 39, (S)-2-Amino-3-(2-methyl-5-(N-(naphthalen-1-yl)sulfamoyl)phenyl)propanoic Acid]	20 to 100 nM	24 ± 9 nM	–	32 ± 2 µM	30 to 100 µM	–
Cc1ccc(S(=O)(=O)Nc2ccc(Cl)cc2)cc1C[C@H](N)C(=O)O [Compound 52, (S)-2-Amino-3-(5-(N-(4-chlorophenyl)sulfamoyl)-2-methylphenyl)propanoic Acid]	≤ 20 nM	12 ± 2 nM	–	9.7 ± 0.7 µM	< 30 µM	–
CCCCNS(=O)(=O)c1ccc(C)c(C[C@H](N)C(=O)O)c1 [Compound 41, (S)-2-Amino-3-(5-(N-butylsulfamoyl)-2-methylphenyl)propanoic Acid]	20 to 100 nM	56 ± 9 nM	–	36 ± 10 µM	30 to 100 µM	–
Cc1ccc(S(=O)(=O)NC2CCCCC2)cc1C[C@H](N)C(=O)O [Compound 53, (S)-2-Amino-3-(5-(N-cyclohexylsulfamoyl)-2-methylphenyl)propanoic Acid]	20 to 100 nM	60 ± 10 nM	–	100 ± 10 µM	≥ 100 µM	–
Cc1ccc(S(=O)(=O)Nc2cccc3c(N(C)C)cccc23)cc1C[C@H](N)C(=O)O [Compound 49, (S)-2-Amino-3-(5-(N-(5-(dimethylamino)naphthalen-1-yl)sulfamoyl)-2-methylphenyl)propanoic Acid]	20 to 100 nM	80 ± 20 nM	–	100 ± 10 µM	≥ 100 µM	–
Cc1ccc(S(=O)(=O)Nc2cccc(Br)c2)cc1C[C@H](N)C(=O)O [Compound 76, (S)-2-Amino-3-(5-(N-(3-bromophenyl)sulfamoyl)-2-methylphenyl)propanoic Acid]	≤ 20 nM	9 ± 3 nM	–	11 ± 1 µM	< 30 µM	–
Cc1ccc(S(=O)(=O)Nc2ccccc2)cc1C[C@H](N)C(=O)O [Compound 35, (S)-2-Amino-3-(2-methyl-5-(N-phenylsulfamoyl)phenyl)propanoic Acid Hydrochloride]	–	30 ± 8 nM	–	–	–	40 ± 10 µM
Cc1ccc(NS(=O)(=O)c2cccc(Br)c2)cc1C[C@H](N)C(=O)O [Compound 29, (S)-2-Amino-3-(5-((3-bromophenyl)sulfonamido)-2-methylphenyl)propanoic Acid]	20 to 100 nM	40 ± 10 nM	–	90 ± 30 µM	30 to 100 µM	–
Cc1ccc(NS(=O)(=O)c2cccc(-c3ccccc3)c2)cc1C[C@H](N)C(=O)O [Compound 38, (S)-3-(5-([1,1′-Biphenyl]-3-sulfonamido)-2-methylphenyl)-2-aminopropanoic Acid]	20 to 100 nM	40 ± 10 nM	–	52 ± 2 µM	30 to 100 µM	–
